One data set concerns the target T1, BCRP/ABCG2 (Homo sapiens, UniProt Q9UNQ0).
T1 sequence (Q9UNQ0 1-655): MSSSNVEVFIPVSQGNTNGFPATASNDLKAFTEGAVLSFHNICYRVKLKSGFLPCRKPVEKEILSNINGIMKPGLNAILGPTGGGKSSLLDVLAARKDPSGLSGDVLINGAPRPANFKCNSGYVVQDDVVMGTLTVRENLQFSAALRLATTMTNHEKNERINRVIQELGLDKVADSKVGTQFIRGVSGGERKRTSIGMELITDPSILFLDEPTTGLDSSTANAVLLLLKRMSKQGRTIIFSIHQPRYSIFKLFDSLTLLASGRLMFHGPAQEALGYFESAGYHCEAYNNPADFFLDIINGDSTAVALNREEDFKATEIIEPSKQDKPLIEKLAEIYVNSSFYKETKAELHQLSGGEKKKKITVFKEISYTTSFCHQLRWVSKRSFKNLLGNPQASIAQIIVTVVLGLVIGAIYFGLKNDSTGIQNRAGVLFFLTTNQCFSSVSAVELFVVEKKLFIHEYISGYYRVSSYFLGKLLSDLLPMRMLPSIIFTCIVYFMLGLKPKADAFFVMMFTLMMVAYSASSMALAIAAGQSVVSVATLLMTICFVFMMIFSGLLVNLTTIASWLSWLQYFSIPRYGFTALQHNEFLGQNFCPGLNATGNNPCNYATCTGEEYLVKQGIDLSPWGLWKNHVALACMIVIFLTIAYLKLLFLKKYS
In words: BCRP-mediated mitoxantrone efflux inhibition, ABCG2-transfected HEK293 cells, flow cytometry. The settings on record: for inhibition at 30 min, 1 μM / inhibition at 30 min, 10 μM / inhibition at 30 min, 1 µM: human, probe mitoxantrone (MX), 4 μM. A general note: In flow cytometry, cells or beads pass a laser one at a time.

The target of a further data set is T2, P-gp (ABCB1) (Homo sapiens, UniProt P08183).
T2 construct: expressed in transfected cells; host or cells: NIH/3T3
The experiment in a line: P-gp-mediated rhodamine 123 efflux inhibition (selectivity assay), ABCB1-transfected NIH/3T3 cells. The data set is classed as cell-based. As to conditions: probe rhodamine 123 (R123), 0.5 μM R123; for inhibition at 30 min, 1 μM: [Inhibitor] 1 μM; for inhibition at 30 min, 10 μM: [Inhibitor] 10 μM. Here is the method: (§1) The tests were performed in triplicate.

A further data set addresses T3, MRP1 (ABCC1) (Homo sapiens, UniProt P33527).
T3 construct: expressed in transfected cells; host or cells: Flp-In 293
The experiment in a line: MRP1-mediated calcein-AM efflux inhibition (selectivity assay), ABCC1-transfected Flp-In 293 cells. The data set is classed as cell-based. As to conditions: probe calcein-AM (cAM), 0.2 μM cAM; for inhibition at 30 min, 1 μM: [Inhibitor] 1 μM; for inhibition at 30 min, 10 μM: [Inhibitor] 10 μM. Here is the method: as §1

Where two headings read alike, the source gives them in different places.

T3 sequence (P33527 whole entry): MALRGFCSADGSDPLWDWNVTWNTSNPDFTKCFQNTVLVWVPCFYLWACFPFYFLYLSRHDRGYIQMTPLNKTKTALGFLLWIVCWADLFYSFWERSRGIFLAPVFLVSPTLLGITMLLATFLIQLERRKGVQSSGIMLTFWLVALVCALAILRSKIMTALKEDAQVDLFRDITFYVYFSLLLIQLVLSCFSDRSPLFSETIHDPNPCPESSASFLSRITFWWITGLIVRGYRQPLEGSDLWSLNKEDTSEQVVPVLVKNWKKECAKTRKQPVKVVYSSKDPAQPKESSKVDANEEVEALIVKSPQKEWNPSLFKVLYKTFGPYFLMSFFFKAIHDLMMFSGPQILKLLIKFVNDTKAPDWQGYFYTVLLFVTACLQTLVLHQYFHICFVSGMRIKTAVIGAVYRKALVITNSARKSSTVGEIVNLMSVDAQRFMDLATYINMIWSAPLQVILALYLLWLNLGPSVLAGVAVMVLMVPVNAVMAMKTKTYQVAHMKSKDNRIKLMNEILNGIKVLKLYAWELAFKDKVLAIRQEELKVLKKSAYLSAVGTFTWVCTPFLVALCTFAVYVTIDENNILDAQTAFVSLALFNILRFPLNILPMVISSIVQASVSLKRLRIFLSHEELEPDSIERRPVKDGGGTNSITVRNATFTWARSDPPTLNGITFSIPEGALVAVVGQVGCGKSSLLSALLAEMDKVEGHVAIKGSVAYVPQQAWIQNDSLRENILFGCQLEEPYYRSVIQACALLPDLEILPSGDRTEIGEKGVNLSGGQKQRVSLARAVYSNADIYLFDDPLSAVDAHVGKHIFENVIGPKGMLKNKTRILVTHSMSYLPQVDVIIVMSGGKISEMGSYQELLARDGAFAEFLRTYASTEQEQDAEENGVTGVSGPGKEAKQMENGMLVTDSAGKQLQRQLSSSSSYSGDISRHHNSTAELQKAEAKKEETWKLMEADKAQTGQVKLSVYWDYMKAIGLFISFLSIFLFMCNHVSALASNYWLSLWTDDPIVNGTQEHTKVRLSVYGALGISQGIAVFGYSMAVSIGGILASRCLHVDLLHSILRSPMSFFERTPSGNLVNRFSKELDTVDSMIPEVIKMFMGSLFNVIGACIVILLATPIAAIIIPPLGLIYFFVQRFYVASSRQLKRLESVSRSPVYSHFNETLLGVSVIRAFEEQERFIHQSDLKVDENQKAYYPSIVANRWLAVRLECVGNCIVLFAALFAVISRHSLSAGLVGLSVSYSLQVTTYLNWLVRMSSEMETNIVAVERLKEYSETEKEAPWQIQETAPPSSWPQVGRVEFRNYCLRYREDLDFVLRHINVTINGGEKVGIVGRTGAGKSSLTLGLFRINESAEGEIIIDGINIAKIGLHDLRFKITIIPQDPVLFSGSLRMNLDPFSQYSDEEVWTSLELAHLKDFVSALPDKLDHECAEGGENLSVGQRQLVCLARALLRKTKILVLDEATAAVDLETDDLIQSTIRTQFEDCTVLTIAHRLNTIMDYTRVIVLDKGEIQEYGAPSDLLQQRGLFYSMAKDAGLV
T2 sequence (P08183 whole entry): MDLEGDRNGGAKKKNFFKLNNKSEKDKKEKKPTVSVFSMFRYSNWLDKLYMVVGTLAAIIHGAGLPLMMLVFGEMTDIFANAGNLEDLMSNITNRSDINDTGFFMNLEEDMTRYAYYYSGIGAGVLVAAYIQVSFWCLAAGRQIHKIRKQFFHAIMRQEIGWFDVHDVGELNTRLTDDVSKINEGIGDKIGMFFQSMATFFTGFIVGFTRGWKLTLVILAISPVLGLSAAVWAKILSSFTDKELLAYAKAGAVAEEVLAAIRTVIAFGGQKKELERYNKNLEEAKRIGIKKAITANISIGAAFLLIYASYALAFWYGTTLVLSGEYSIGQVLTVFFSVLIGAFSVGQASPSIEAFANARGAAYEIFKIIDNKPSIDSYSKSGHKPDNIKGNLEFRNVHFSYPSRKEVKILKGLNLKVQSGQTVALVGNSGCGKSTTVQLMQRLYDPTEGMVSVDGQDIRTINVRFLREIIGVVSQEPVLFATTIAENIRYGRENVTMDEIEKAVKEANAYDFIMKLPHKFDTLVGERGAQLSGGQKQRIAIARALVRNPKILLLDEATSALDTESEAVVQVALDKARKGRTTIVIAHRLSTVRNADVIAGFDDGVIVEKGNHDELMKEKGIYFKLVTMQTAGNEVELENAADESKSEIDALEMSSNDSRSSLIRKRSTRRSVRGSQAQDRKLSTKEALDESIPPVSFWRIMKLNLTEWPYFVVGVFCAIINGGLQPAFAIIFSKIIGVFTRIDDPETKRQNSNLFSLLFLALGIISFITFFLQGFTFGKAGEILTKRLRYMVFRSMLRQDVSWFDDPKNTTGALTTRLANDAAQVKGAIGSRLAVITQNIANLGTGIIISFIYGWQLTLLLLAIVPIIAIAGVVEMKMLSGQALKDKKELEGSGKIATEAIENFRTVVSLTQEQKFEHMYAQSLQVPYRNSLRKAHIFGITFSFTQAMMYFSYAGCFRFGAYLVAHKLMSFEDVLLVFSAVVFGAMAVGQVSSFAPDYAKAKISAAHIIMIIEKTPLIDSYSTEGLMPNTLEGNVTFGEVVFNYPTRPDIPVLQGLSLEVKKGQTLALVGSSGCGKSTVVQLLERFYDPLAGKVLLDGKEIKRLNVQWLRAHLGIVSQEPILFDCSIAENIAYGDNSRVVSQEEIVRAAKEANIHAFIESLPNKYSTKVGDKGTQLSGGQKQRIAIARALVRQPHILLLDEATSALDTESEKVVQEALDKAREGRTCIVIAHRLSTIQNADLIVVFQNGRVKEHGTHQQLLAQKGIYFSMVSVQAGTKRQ
Protocol for BCRP/ABCG2: The cells were seeded in 96-well plates at a density of 5×10^4 cells/well in 200 μL of medium and incubated overnight. Then the growth medium was changed to fresh medium containing the compounds and in the presence of 4 μM MX as a fluorescent probe for BCRP-mediated efflux at a final concentration of 0.5% (v/v) DMSO. After 30 min incubation at 37° C., the medium was removed, and the cells were washed with 100 μL of Dulbecco's phosphate-buffered saline (DPBS) followed by dissociation of the cells for 5 min at 37° C. mediated by 25 μL trypsin. Finally, trypsin was neutralised with 175 μL of DPBS ice-cold with 2% bovine serum albumin (BSA) and the cells were carefully resuspended. As a selectivity assay, the same experiment was performed for P-gp and MRP1-mediated efflux with 0.5 μM R123 or 0.2 μM cAM as respective fluorescent substrates instead of MX.
Intracellular fluorescence was measured with a MacsQUANT VRB Analyzer flow cytometer (Miltenyi Biotec) with at least 5000 events recorded. While MX was excited at 635 nm and the fluorescence emission recorded in a 655-730 nm window, R123 and cAM were excited at 488 nm and recorded in a 525/50 nm filter. The compound inhibition yield was estimated by the following equation:
where G2FA is the fluorescence emission (a.u.) of accumulated fluorophore in cells expressing the efflux pump incubated with a fluorescent substrate and the test compound. G2FBG is the resulting background fluorescence emission (a.u.) in cells transfected with ABCG2 (no substrate or test compound). G2S is the fluorescence emission (a.u.) of accumulated fluorophore in cells expressing the efflux pump incubated with substrate only. HEKFA is the fluorescence emission (a.u.) of accumulated fluorophore in control cells incubated with the substrate and test compound. HEKFBG is the resulting background fluorescence emission (a.u.) in control cells (no substrate or test compound). All values are given as the geometric mean fluorescence emission (a.u.) in a 655-730 nm filter (635 nm excitation) measured over 5000 events. The tests were performed in triplicate.

The compound `CCC(C)[C@H](NC(=O)c1cc(=O)c2c(OCc3ccccc3Br)cccc2o1)C(=O)OC` (some centres unmarked) [5a (series 1)] displayed a melting point of 123.1 to 125.7 °C. At BCRP/ABCG2, the IC50 worked out at 100 ± 10 nM; the inhibition at 30 min, 1 μM was found to be 78 ± 9%; the inhibition at 30 min, 10 μM was determined as 143 ± 22%.
For `CCC(C)[C@H](NC(=O)c1cc(=O)c2c(OCc3ccc(Br)cc3)cccc2o1)C(=O)OC` (some centres unmarked) [5b (series 1)], at BCRP/ABCG2, the IC50 came to 590 ± 80 nM and the inhibition at 30 min, 10 μM amounted to 115 ± 14%.
`COC(=O)[C@H](CC(C)C)NC(=O)c1cc(=O)c2c(OCc3ccccc3Br)cccc2o1` [5c (series 1), methyl (5-((2-bromobenzyl)oxy)-4-oxo-4H-chromene-2-carbonylamino)-L-leucinate] registered a melting point of 60.3 to 60.4 °C. For the same compound, on P-gp (ABCB1), the inhibition at 30 min, 1 μM stood at 7 ± 1.1% and the inhibition at 30 min, 10 μM turned out to be 4.8 ± 0.7%. In addition, at MRP1 (ABCC1), the inhibition at 30 min, 1 μM is 20.2 ± 2.7% and the inhibition at 30 min, 10 μM is 19.2 ± 2.2%. For the same compound, on BCRP/ABCG2, the IC50 was 140 ± 40 nM; the inhibition at 30 min, 1 µM turned out to be 114%; the inhibition at 30 min, 1 μM was 115 ± 17%; the inhibition at 30 min, 10 μM was found to be 102 ± 21.7%.
For the compound `COC(=O)[C@@H](NC(=O)c1cc(=O)c2c(OCc3ccccc3Br)cccc2o1)C(C)C` [5d (series 1), methyl (5-((2-bromobenzyl)oxy)-4-oxo-4H-chromene-2-carbonylamino)-L-valinate], the melting point lay within 127 to 128.2 °C. In addition, at P-gp (ABCB1), the inhibition at 30 min, 1 μM was 7.9 ± 0.7% and the inhibition at 30 min, 10 μM was 6.5 ± 1.9%. Further, at MRP1 (ABCC1), the inhibition at 30 min, 1 μM is 12.6 ± 1.3% and the inhibition at 30 min, 10 μM is 17.8 ± 0.9%. For the same compound, at BCRP/ABCG2, the IC50 amounted to 50 ± 30 nM; the inhibition at 30 min, 1 µM was 86.6%; the inhibition at 30 min, 1 μM is 87 ± 7%; the inhibition at 30 min, 10 μM was determined as 148 ± 6.7%.
Consider `COC(=O)[C@H](Cc1ccccc1)NC(=O)c1cc(=O)c2c(OCc3ccc(Br)cc3)cccc2o1` [5f (series 1), methyl (5-((4-bromobenzyl)oxy)-4-oxo-4H-chromene-2-carbonylamino)-L-phenylalaninate], for which, on P-gp (ABCB1), the inhibition at 30 min, 1 μM worked out at 6.4 ± 1.5% and the inhibition at 30 min, 10 μM is 6.8 ± 1.4%. Further, on MRP1 (ABCC1), the inhibition at 30 min, 1 μM was 23% and the inhibition at 30 min, 10 μM is 19%.
`COC(=O)[C@H](Cc1c[nH]c2ccccc12)NC(=O)c1cc(=O)c2c(OCc3ccccc3Br)cccc2o1` [5g (series 1), methyl (5-((2-bromobenzyl)oxy)-4-oxo-4H-chromene-2-carbonylamino)-L-tryptophanate]: the melting point is 250 to 252.8 °C. Also, at P-gp (ABCB1), the inhibition at 30 min, 1 μM came to 7.4 ± 0.3% and the inhibition at 30 min, 10 μM came to 5.3 ± 0.5%. Also, at MRP1 (ABCC1), the inhibition at 30 min, 1 μM is 23 ± 2.5% and the inhibition at 30 min, 10 μM was 16 ± 2.5%. Moreover, at BCRP/ABCG2, the inhibition at 30 min, 1 µM worked out at 93.7%; the inhibition at 30 min, 1 μM was 93.7 ± 17%; the inhibition at 30 min, 10 μM was found to be 39.7 ± 3.7%.
Regarding `COC(=O)[C@H](Cc1c[nH]c2ccccc12)NC(=O)c1cc(=O)c2c(OCc3ccc(Br)cc3)cccc2o1` [5h (series 1), methyl (5-((4-bromobenzyl)oxy)-4-oxo-4H-chromene-2-carbonylamino)-L-tryptophanate], the melting point was 235.3 to 236.2 °C. Further, on P-gp (ABCB1), the inhibition at 30 min, 1 μM was determined as 7.4 ± 2.5% and the inhibition at 30 min, 10 μM is 6.6 ± 1.4%. Also, on MRP1 (ABCC1), the inhibition at 30 min, 1 μM is 10.3% and the inhibition at 30 min, 10 μM is 17.4%. Besides, at BCRP/ABCG2, the IC50 was found to be 480 ± 70 nM; the inhibition at 30 min, 1 µM stood at 96.4%; the inhibition at 30 min, 1 μM turned out to be 92 ± 15%; the inhibition at 30 min, 10 μM is 87.7 ± 12%.
In the case of `CC[C@@H](C)[C@H](NC(=O)c1cc(=O)c2c(OCc3ccc(Br)cc3)cccc2o1)C(=O)O` [6b (series 1), (5-((4-bromobenzyl)oxy)-4-oxo-4H-chromene-2-carbonyl)-L-alloisoleucine], on P-gp (ABCB1), the inhibition at 30 min, 1 μM turned out to be 7.7 ± 1.9% and the inhibition at 30 min, 10 μM came to 7.1 ± 0.6%. Besides, on MRP1 (ABCC1), the inhibition at 30 min, 1 μM was 21.9 ± 4.6% and the inhibition at 30 min, 10 μM is 20.6 ± 1.2%.
Take `O=C(N[C@@H](Cc1ccccc1)C(=O)O)c1cc(=O)c2c(OCc3ccc(Br)cc3)cccc2o1` [6d (series 1), (5-((4-bromobenzyl)oxy)-4-oxo-4H-chromene-2-carbonylamino)-L-phenylalanine]: on BCRP/ABCG2, the inhibition at 30 min, 1 μM stood at 4 ± 0.7% and the inhibition at 30 min, 10 μM was 6.5%.
As for `O=C(N[C@H](Cc1c[nH]c2ccccc12)C(=O)O)c1cc(=O)c2c(OCc3ccc(Br)cc3)cccc2o1` [6e (series 1), (5-((4-bromobenzyl)oxy)-4-oxo-4H-chromene-2-carbonylamino)-D-tryptophan], the melting point was in the range of 185.5 to 186.7 °C. Besides, on BCRP/ABCG2, the inhibition at 30 min, 1 μM worked out at 6.1 ± 0.6% and the inhibition at 30 min, 10 μM came to 11.2 ± 2%.
With `CC[C@@H](C)[C@H](NC(=O)c1cc(=O)c2c(OCc3ccccc3Br)cccc2o1)C(=O)N[C@H](C(=O)OC)C(C)C` [7a (series 2)], on P-gp (ABCB1), the inhibition at 30 min, 1 μM was found to be 0.1% and the inhibition at 30 min, 10 μM came to 0.2%. Also, on MRP1 (ABCC1), the inhibition at 30 min, 1 μM was 11.1 ± 0.8% and the inhibition at 30 min, 10 μM is 10.8 ± 2.8%. For the same compound, at BCRP/ABCG2, the IC50 was found to be 70 ± 10 nM and the inhibition at 30 min, 1 µM turned out to be 84.8 ± 7.4%.
`COc1ccc2[nH]cc(CCNC(=O)c3cc(=O)c4c(OCc5ccc(Br)cc5Br)cccc4o3)c2c1` [7a (series 3), 5-((2,4-dibromobenzyl)oxy)-N-(2-(5-methoxy-1H-indol-3-yl)ethyl)-4-oxo-4H-chromene-2-carboxamide]: at BCRP/ABCG2, the IC50 came to 50 ± 10 nM.
For `CC[C@@H](C)[C@H](NC(=O)c1cc(=O)c2c(OCc3ccccc3Br)cccc2o1)C(=O)N[C@@H](CC(C)C)C(=O)OC` [7b (series 2)], at P-gp (ABCB1), the inhibition at 30 min, 1 μM was found to be 1.7 ± 2.4% and the inhibition at 30 min, 10 μM came out at 2.4 ± 0.5%. At MRP1 (ABCC1), the inhibition at 30 min, 1 μM was 10.3 ± 0.7%. In addition, on BCRP/ABCG2, the IC50 stood at 70 ± 10 nM and the inhibition at 30 min, 1 µM came to 82.5 ± 9.7%.
`COc1ccc2[nH]cc(CCNC(=O)c3cc(=O)c4c(OCc5cc(Br)cc(Br)c5)cccc4o3)c2c1` [7b (series 3), ((3,5-dibromobenzyl)oxy)-N-(2-(5-methoxy-1H-indol-3-yl)ethyl)-4-oxo-4H-chromene-2-carboxamide] gave an IC50 at BCRP/ABCG2 (ABCG2 inhibition, Table 2) of 100 ± 10 nM.
On to `CC[C@@H](C)[C@H](NC(=O)c1cc(=O)c2c(OCc3ccc(Br)cc3)cccc2o1)C(=O)N[C@H](C(=O)OC)C(C)C` [7c (series 2)], for which, on P-gp (ABCB1), the inhibition at 30 min, 1 μM came out at 2.4 ± 2.1% and the inhibition at 30 min, 10 μM amounted to 10.6 ± 0.3%. On MRP1 (ABCC1), the inhibition at 30 min, 1 μM was 11.5 ± 0.4% and the inhibition at 30 min, 10 μM is 15.3 ± 1.5%. For the same compound, on BCRP/ABCG2, the IC50 was 250 ± 100 nM and the inhibition at 30 min, 1 µM was determined as 72.4 ± 7.1%.
Consider `CC[C@@H](C)[C@H](NC(=O)c1cc(=O)c2c(OCc3ccc(Br)cc3)cccc2o1)C(=O)N[C@@H](CC(C)C)C(=O)OC` [7d (series 2), methyl (5-((4-bromobenzyl)oxy)-4-oxo-4H-chromene-2-carbonylamino)-L-alloisoleucyl-L-leucinate], for which, at P-gp (ABCB1), the inhibition at 30 min, 1 μM stood at 3.6 ± 0.2% and the inhibition at 30 min, 10 μM worked out at 5.9 ± 0.1%. Also, on MRP1 (ABCC1), the inhibition at 30 min, 1 μM was 10.9 ± 1.4% and the inhibition at 30 min, 10 μM was 14.7 ± 1%. For the same compound, at BCRP/ABCG2, the 50% inhibitory concentration (IC50) was determined as 110 ± 30 nM and the inhibition at 30 min, 1 µM came to 52.3 ± 5.1%.
With `COc1ccc2[nH]cc(CCNC(=O)c3cc(=O)c4c(OCc5ccc(Br)cc5)cccc4o3)c2c1` [MBL-II-141, reference compound], the IC50 on BCRP/ABCG2 (ABCG2 inhibition, Table 2) turned out to be 130 ± 90 nM.

The term IC50 denotes the point on the concentration scale where inhibition reaches its midpoint. A higher IC50 goes with lower potency. One may read the inhibition as the relative decrease from the control value, in per cent. Broadly, the melting point is the temperature, or range, at which the solid turns liquid.

The values are drawn from patent US20220267289A1, “SELECTIVE BCRP/ABCG2 TRANSPORTER INHIBITORS AS AGENTS TO ABOLISH RESISTANCE TO ANTI-CANCER AGENTS” (UNIVERSITE GRENOBLE ALPES, priority 2019, published 2022).
